In publication PMC7659976, “Benzobicyclo[3.2.1]octene Derivatives as a New Class of Cholinesterase Inhibitors” (Molecules, 2020):
Where two headings read alike, the source gives them in different places.

Key:
[1] = target: BChE derived from purified human plasma (Homo sapiens, UniProt P06276); assay: biochemical; conditions: 0.1 M phosphate buffer pH 7.4, 25 °C, ATCh substrate
recombinant human AChE = recombinant human AChE (Homo sapiens, UniProt P22303); assay: biochemical; type: biochemical; conditions: for IC50: 0.1 M phosphate buffer pH 7.4, 25 °C, ATCh substrate, read-out: Inhibition of human AChE, IC50 ± SEM
BChE [2] = type: biochemical; conditions: compared to huperzine A
BChE [3] = tested on: BChE; set-up: method as in doi:10.1016/j.molstruc.2018.05.027, doi:10.3906/kim-1903-74; conditions: photoproducts of Figure 1; read-out: BChE inhibition IC50; cited from earlier work
AChE = tested on: AChE; set-up: method as in doi:10.1016/j.molstruc.2018.05.027, doi:10.3906/kim-1903-74; conditions: photoproducts of Figure 1; read-out: AChE inhibition IC50; cited from earlier work
[4] = Table 2, oximes and oxime ethers, read-out: Inhibition of BChE, IC50 ± SEM
[5] = Table 1, benzobicyclo[3.2.1]octadiene benzylamines, read-out: Inhibition of BChE, IC50 ± SEM
[6] = Table 3, epoxides, alcohols and ethers
[7] = Table 3, epoxides, alcohols and ethers, read-out: Inhibition of human BChE, IC50 ± SEM
[8] = Table 4, acylated furo-benzobicyclo[3.2.1]octenes/octadienes
[9] = Table 4, acylated furo-benzobicyclo[3.2.1]octenes/octadienes, read-out: Inhibition of human BChE, IC50 ± SEM

recombinant human AChE, sequence (P22303 32-614): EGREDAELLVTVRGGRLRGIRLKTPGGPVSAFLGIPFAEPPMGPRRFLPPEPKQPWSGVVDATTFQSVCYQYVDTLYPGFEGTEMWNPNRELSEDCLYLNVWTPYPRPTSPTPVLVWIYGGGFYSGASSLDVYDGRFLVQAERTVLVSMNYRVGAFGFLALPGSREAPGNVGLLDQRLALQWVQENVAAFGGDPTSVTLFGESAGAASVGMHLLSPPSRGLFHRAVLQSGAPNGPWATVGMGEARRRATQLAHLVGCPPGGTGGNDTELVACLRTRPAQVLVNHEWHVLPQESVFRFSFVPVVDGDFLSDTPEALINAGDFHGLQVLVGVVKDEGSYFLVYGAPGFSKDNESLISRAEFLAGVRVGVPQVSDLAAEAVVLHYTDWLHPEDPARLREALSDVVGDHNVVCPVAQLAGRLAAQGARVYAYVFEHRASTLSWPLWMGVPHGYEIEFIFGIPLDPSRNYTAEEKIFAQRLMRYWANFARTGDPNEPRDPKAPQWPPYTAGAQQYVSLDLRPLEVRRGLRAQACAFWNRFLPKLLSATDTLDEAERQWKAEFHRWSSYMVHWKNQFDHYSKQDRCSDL
BChE derived from purified human plasma, sequence (P06276 29-602): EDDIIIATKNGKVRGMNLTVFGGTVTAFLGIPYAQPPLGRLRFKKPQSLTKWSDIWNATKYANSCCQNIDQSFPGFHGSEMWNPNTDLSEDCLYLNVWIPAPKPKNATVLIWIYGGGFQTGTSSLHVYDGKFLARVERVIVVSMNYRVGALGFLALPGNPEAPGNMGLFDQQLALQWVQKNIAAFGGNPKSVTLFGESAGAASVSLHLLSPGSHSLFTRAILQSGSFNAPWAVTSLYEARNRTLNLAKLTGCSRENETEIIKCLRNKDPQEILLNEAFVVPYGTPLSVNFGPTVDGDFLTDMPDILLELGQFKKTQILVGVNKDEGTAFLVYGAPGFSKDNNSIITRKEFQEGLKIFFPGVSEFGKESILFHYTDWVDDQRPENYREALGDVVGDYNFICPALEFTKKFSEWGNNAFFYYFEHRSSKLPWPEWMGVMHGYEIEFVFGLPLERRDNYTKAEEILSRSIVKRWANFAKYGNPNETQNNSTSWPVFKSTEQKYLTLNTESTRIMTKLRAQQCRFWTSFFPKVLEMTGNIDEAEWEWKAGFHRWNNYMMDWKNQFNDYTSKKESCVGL

Molecule `CC(=O)O/N=C/c1cc2c(o1)CC1CC2c2ccccc21` (stereo not drawn) [Compound 30] has an IC50 [1, 4] of 61 ± 36 µM.
`C1=C[C@H](c2ccc(NCc3ccccc3)cc2)[C@H]2C[C@@H]1c1ccccc12` [endo-4, N-Benzyl-4-((5R,6S,9S)-6,9-dihydro-5H-5,9-methanobenzo[7]annulen-6-yl)aniline] gave an IC50 [1, 5] of 110 ± 77 µM.
`Cc1ccccc1CNc1ccc(C2=CCC3CC2c2ccccc23)cc1` (stereo not drawn) [Compound 9] gave an IC50 [1, 5] of 240 ± 210 µM.
`CCCOC1C[C@@H]2C[C@@H](c3ccccc32)[C@H]1c1ccccc1` (stereo partly drawn) [endo-43, (5R,6S,9S)-6-Phenyl-7-propoxy-6,7,8,9-tetrahydro-5H-5,9-methanobenzo[7]annulene] showed an IC50 (recombinant human AChE; [6]) greater than 100 µM and an IC50 [1, 7] of 17 ± 2 µM.
`COc1ccccc1CNc1ccc(C2C=CC3CC2c2ccccc23)cc1` (stereo not drawn) [endo-15] gave an IC50 [1, 5] greater than 500 µM.
`C=CCO/N=C/c1cc2c(o1)CC1CC2c2ccccc21` (stereo not drawn) [Compound 29] gave an IC50 [1, 4] of 100 ± 32 µM.
`Cc1cccc(CNc2ccc(C3C=CC4CC3c3ccccc34)cc2)c1` (stereo not drawn) [endo-10] gave an IC50 [1, 5] of 63 ± 13 µM.
Work on `CCC(=O)C/C=C1\C(O)=CC2CC1c1ccccc12` [Compound 53, (Z)-1-((5R,9R)-7-Hydroxy-5,9-dihydro-6H-5,9-methanobenzo[7]annulen-6-ilydene)-pentan-3-one] yielded an IC50 (recombinant human AChE; [8]) of 188 ± 133 µM and an IC50 [1, 9] of 146 ± 30 µM.
`Fc1ccc(CNc2ccc(C3C=CC4CC3c3ccccc34)cc2)cc1` (stereo not drawn) [endo-20] gave an IC50 [1, 5] greater than 500 µM.
With `COc1ccc([C@H]2[C@@H]3OC3[C@@H]3C[C@H]2c2ccccc23)cc1` (stereo partly drawn) [endo-39, (2R,7R,8S,8as)-8-(4-Methoxyphenyl)-1a,7,8,8a-tetrahydro-2H-2,7-methanobenzo[4,5]cyclohepta[1,2-b]oxirene] the IC50 (recombinant human AChE; [6]) was greater than 100 µM and the IC50 [1, 7] was 33 ± 6 µM.
Work on `CC(C)O/N=C/C/C=C1\C(O)CC2CC1c1ccccc12` (stereo not drawn) [Compound 32] yielded an IC50 [1, 4] of 31 ± 4 µM.
In the case of `C=CCCO/N=C/C(=O)/C=C1\C=CC2CC1c1ccccc12` (stereo not drawn) [Compound 33], the IC50 [1, 4] is reported as 140 ± 49 µM.
`COc1cccc(CNc2ccc(C3C=CC4CC3c3ccccc34)cc2)c1` (stereo not drawn) [endo-16] gave an IC50 [1, 5] greater than 500 µM.
`CCCO/N=C\c1cc2c(o1)CC1CC2c2ccccc21` (stereo not drawn) [Compound 27, (Z)-9,10-Dihydro-4H-4,9-methanobenzo[4,5]cyclohepta[1,2-b]furan-2-carbaldehyde O-propyl oxime] gave an IC50 [1, 4] of 74 ± 19 µM.
For `Clc1cccc(CNc2ccc(C3C=CC4CC3c3ccccc34)cc2)c1` (stereo not drawn) [endo-13], the IC50 [1, 5] was greater than 500 µM.
With `CCO/N=C/c1cc2c(o1)CC1CC2c2ccccc21` (stereo not drawn) [Compound 26] the IC50 [1, 4] was 380 ± 250 µM.
In the case of `C1=CC(c2ccncc2)C2CC1c1ccccc12` (stereo not drawn) [endo-2], the “Potency as BChE inhibitor in comparison to huperzine A” value (BChE [2]) is given as “about five times more potent” and the IC50 (BChE [3]) is given as 8.8 µM.
In the case of `CC(C)O/N=C/C/C=C1\C(O)=CC2CC1c1ccccc12` (stereo not drawn) [Compound 31], the IC50 [1, 4] is reported as 90 ± 40 µM.
Work on `COc1ccc(CNc2ccc(C3C=CC4CC3c3ccccc34)cc2)cc1` (stereo not drawn) [endo-17] yielded an IC50 [1, 5] greater than 500 µM.
Work on `Clc1ccc(C2=CCC3CC2c2ccccc23)cc1` (stereo not drawn) [Compound 1] yielded an IC50 [1, 5] of 260 ± 120 µM.
`Fc1cccc(CNc2ccc(C3C=CC4CC3c3ccccc34)cc2)c1` (stereo not drawn) [endo-19] showed an IC50 [1, 5] greater than 500 µM.
For `CC(=O)O/N=C/C/C=C1\C(O)CC2CC1c1ccccc12` (stereo not drawn) [Compound 34], the IC50 [1, 4] was 78 ± 31 µM.
In the case of `Cc1ccccc1CNc1ccc(C2C=CC3CC2c2ccccc23)cc1` (stereo not drawn) [endo-9], the IC50 [1, 5] is reported as greater than 500 µM.
Molecule `CCCOC1C[C@@H]2C[C@@H](c3ccccc32)[C@H]1c1ccc(OC)cc1` (stereo partly drawn) [endo-47, (5R,6S,9S)-6-(4-Methoxyphenyl)-7-propoxy-6,7,8,9-tetrahydro-5H-5,9-methanobenzo[7]annulene] has an IC50 (recombinant human AChE; [6]) greater than 100 µM and an IC50 [1, 7] greater than 200 µM.
In the case of `c1ccc([C@H]2C3OC3[C@@H]3C[C@H]2c2ccccc23)cc1` (stereo partly drawn) [endo-38, (2R,7R,8S)-8-Phenyl-1a,7,8,8a-tetrahydro-2H-2,7-methanobenzo[4,5]cyclohepta[1,2-b]-oxirene], the “Potency for AChE relative to BChE (fold lower)” value (recombinant human AChE; AChE versus BChE) is reported as 3 fold, the IC50 (recombinant human AChE; [6]) is reported as 62 ± 8 µM and the IC50 [1, 7] is reported as 22 ± 5 µM.
For `Cc1ccc(CNc2ccc(C3C=CC4CC3c3ccccc34)cc2)cc1` (stereo not drawn) [endo-11], the IC50 [1, 5] was no less than 500 µM.
Work on `Nc1ccc(C2=CCC3CC2c2ccccc23)cc1` (stereo not drawn) [Compound 20] yielded an IC50 [1, 5] of 182 ± 98 µM.
With `COc1ccc(CNc2ccc(C3=CCC4CC3c3ccccc34)cc2)cc1` (stereo not drawn) [Compound 17] the IC50 [1, 5] was 120 ± 64 µM.
`Fc1ccccc1CNc1ccc(C2C=CC3CC2c2ccccc23)cc1` (stereo not drawn) [endo-18] showed an IC50 [1, 5] greater than 500 µM.
With `O=C1CC2CC(/C1=C/C/C=N/OCCCCl)c1ccccc12` (stereo not drawn) [Compound 35] the IC50 [1, 4] was 60 ± 11 µM.
With `C1=C[C@H](c2ccc(NCc3cccs3)cc2)[C@H]2C[C@@H]1c1ccccc12` [endo-8, 4-((5R,6S,9S)-6,9-dihydro-5H-5,9-methanobenzo[7]annulen-6-yl)-N-(thien-2-ylmethyl)aniline] the IC50 [1, 5] was greater than 500 µM.
In the case of `Clc1ccc(C2C=CC3CC2c2ccccc23)cc1` (stereo not drawn) [endo-1, 11-(4-Chlorophenyl)tricyclo[6.3.1.0^²,7]dodeca-2,4,6,9-tetraene], the IC50 (AChE) is listed as 17.5 µM.
`CCOC1C[C@@H]2C[C@@H](c3ccccc32)[C@H]1c1ccc(OC)cc1` (stereo partly drawn) [endo-46, (5R,6S,9S)-7-Ethoxy-6-(4-methoxyphenyl)-6,7,8,9-tetrahydro-5H-5,9-methanobenzo-[7]annulene] showed an IC50 (recombinant human AChE; [6]) of 270 ± 110 µM and an IC50 [1, 7] greater than 500 µM.
Molecule `Clc1ccc(CNc2ccc(C3C=CC4CC3c3ccccc34)cc2)cc1` (stereo not drawn) [endo-14] has an IC50 [1, 5] greater than 500 µM.
Work on `C1=C[C@H](c2ccc(NCc3ccco3)cc2)[C@H]2C[C@@H]1c1ccccc12` [endo-7, 4-((5R,6S,9S)-6,9-Dihydro-5H-5,9-methanobenzo[7]annulen-6-yl)-N-(fur-2-ylmethyl)aniline] yielded an IC50 [1, 5] of no less than 500 µM.
`C/C(O)=C/C=C1\C(O)CC2CC1c1ccccc12` [Compound 51, (5R,9R,Z)-6-((Z)-3-Hydroxybut-2-ene-1-ilydene)-6,7,8,9-tetrahydro-5H-5,9-methano-benzo[7]annulen-7-ol] gave an IC50 (recombinant human AChE; [8]) of 8.3 ± 4 µM and an IC50 [1, 9] greater than 300 µM.
In the case of `CC(C)O/N=C/c1cc2c(o1)CC1CC2c2ccccc21` (stereo not drawn) [Compound 28], the IC50 [1, 4] is reported as 24 ± 3 µM.
Molecule `OCCCOC1CC2CC(c3ccccc32)C1c1ccccc1` [endo-45, 3-(((5R,6S,9S)-6-Phenyl-6,7,8,9-tetrahydro-5H-5,9-methanobenzo[7]annulen-7-il)oxy)propan-1-ol] has an IC50 (recombinant human AChE; [6]) greater than 100 µM and an IC50 [1, 7] of 90 ± 24 µM.
